The source of these data is US20250188123A1, “PROTEASE INHIBITORS” (Regents of the University of Minnesota, priority 2022, published 2025).

Structures are written as SMILES. Where two headings read alike, the source gives them in different places. *1 amine or outer side, *2 acyl side, *3 side chain or, on linkers, in order; H or OH if unused. Where a SMILES comes first, the peptide text is derived from it. [ ]: non-standard residue; d: D form. The star is where a group is joined. ξ: configuration not given here. ξTHIQ1CO(6-Me) = Cc1ccc2c(c1)CCNC2C(=O)O; X3 = O=C([C@@H]1Cc2ccccc2N1[*:1])[*:2]; Aad = N[C@@H](CCCC(=O)O)C(=O)O; Thr(3ξ) = CC(O)[C@H](N)C(=O)O; Bn = c1ccc(C*)cc1 Where only a bound is given, the exact number is not on record here.

The target in one assay is T1, human caspase-2 (Homo sapiens, UniProt P42575).
T1 construct: inferred from pET23b, XhoI reverse primer without stop codon, Ni-NTA purification) (C); made in house; host or cells: E. coli BL21(DE3)
T1 sequence (P42575 170-452): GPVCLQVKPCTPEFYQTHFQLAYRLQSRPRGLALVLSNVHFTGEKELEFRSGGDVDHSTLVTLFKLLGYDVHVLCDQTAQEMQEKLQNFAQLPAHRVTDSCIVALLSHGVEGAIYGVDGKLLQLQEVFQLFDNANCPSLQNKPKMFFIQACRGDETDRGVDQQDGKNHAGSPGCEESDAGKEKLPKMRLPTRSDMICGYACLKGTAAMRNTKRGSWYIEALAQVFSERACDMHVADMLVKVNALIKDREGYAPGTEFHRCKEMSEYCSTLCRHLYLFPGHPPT
Briefly: Fluorescent enzyme assay, Casp2 (AFC substrate Z-VDVAD-AFC). The class given is biochemical. Particulars: for Ki (Casp3) / Ki (Casp2): selectivity Casp2 over Casp3. An excerpt:
(§1) Human recombinant Casp1, 6, 7, and 9 were purchased from BioVision (Milpitas/CA, USA). AFC fluorogenic substrates and control peptides (AcYVAD-CHO, AcVDVAD-CHO, AcDEVD-CHO, AcVEID-CHO, and AcLEHD-CHO) were purchased from Bachem (Torrance/CA, USA). The pET23b vector encoding human caspase-3 was a gift of Dr. Michelle Arkin at University of California, San Francisco. Expression and purification of Casp3 was guided by previously described protocols (Denault J-B, Salvesen G S., Current Protocols in Protein Science, 2002, 30(1), 21.13. 1-21.13. 15). Briefly, the plasmid was transformed into E. coli Rosetta 2 pLyss DE3 cells that were cultured at 1 L scale in shake flasks. Five hours post induction with IPTG, cells were harvested through centrifugation (4000 g for 10 minutes at 4° C.), lysed by sonication, and centrifuged again for 30 minutes at 20000 g. Supernatant was resuspended in buffer (100 mM Tris pH 8.0, 500 mM NaCl). Purification was achieved by nickel-affinity chromatography followed by ion-exchange chromatography. Protein was diluted to 0.5 mg/mL and stored at −80° C. in 100 mM Tris, pH 8.0 supplemented with 10% glycerol. The typical yield for the expression, isolation, and purification was approximately 3 mg/L. The DNA encoding human caspase-2 (hCASP2, amino acids 170-452, free of the N-terminal caspase activation and recruitment domain) open reading frame (ORF) was amplified via polymerase chain reaction (PCR) from full-length hCASP2 cDNA (Origene, Rockville, MD; Cat #SC321316) using following primers: forward, 5′-[…]-3′; reverse, 5′-[…]-3′. The PCR fragment was then cloned into the pET23b vector (Millipore Sigma, Burlington, MA), and DNA sequence was verified by classic Sanger sequencing analyses. Site-directed mutageneses were carried out using a QuikChange II XL site-directed mutagenesis kit (Agilent Technologies, Santa Clara, CA; Cat #200522) according to the manufacturer's instruction. Expression of recombinant hCASP2 was induced using 150 μM isopropyl-β-D-thiogalactopyranoside (IPTG) (Promega, Madison, WI) in the BL21(DE3) E. coli strain (Millipore Sigma) at 16° C. for 14 hours while shaking at 250 rpm. Cells were then harvested via centrifugation at 6,000 g, 4° C. for 15 minutes, followed by lysis via sonication. Proteins were initially purified using HisPur Ni-NTA resin (Thermo Fisher Scientific, Waltham, MA) followed by metal chelating chromatography (5 mL HiTrap Chelating HP columns (GE Healthcare Life Sciences, Piscataway, NJ)). Further purification was carried out using anion exchange chromatography (5 mL HiTrap Q HP columns (GE Healthcare Life Sciences)) for hCASP2. Proteins were stored in 1× phosphate-buffered saline (pH 7.4) at 10 mg/mL (concentration determined using a BCA assay (Thermo Fisher Scientific)), −80° C. until further use.
(§2) KM values were determined experimentally to be the following: Casp1: 5.9 μM; Casp2: 37.1 μM; Casp3: 7.6 μM; Casp6: 14.5 μM; Casp7: 13.8 μM; Casp9: 149.1 μM. Enzymes were diluted in buffer: 100 mM MES (pH 6.5) for Casp2 and or 100 mM HEPES (pH 7.0) for all other caspases, plus 150 mM NaCl, 0.1% CHAPS, 1.5% sucrose, 10 mM DTT. Enzyme concentrations were 0.05 U/well for Casp1, 6, and 7; 0.5 U/well for Casp9, 20 nM/well for Casp2, and 2 nM/well for Casp3. Enzyme in buffer (19 μL) was added per well in a black 384-well Corning 4514 assay plate. Test compounds were serially diluted in dimethyl sulfoxide (DMSO) and plated in duplicate into a Corning 3656 transfer plate. Test compound was added to assay plates in 0.5 μL aliquots per well and mixed 10 times using a BiomekFX (Beckman Coulter). Compound and enzyme mixture was incubated at 37° C. for 5 minutes for aldehyde warheads and 45 minutes for cyano warheads. […]

The target of the next assay is T2, human caspase-3 (Homo sapiens, UniProt P42574).
T2 construct: made in house; host or cells: E. coli Rosetta 2 pLysS DE3
T2 sequence (P42574 29-277): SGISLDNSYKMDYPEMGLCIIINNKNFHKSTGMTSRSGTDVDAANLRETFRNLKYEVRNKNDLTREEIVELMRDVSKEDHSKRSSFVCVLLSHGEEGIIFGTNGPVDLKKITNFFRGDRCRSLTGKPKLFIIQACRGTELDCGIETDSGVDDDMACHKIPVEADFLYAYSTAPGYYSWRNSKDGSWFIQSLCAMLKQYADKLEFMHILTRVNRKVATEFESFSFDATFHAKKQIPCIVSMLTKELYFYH
Briefly: Fluorescent enzyme assay, Casp3 (AFC substrate AcDEVD-AFC). The class given is biochemical.
Excerpt: as §1, §2

[1] abbreviates: mean ± SEM of N independent experiments, each in duplicate or triplicate, read-out: pKi ± SEM Casp 2 (converted).
Where [2] appears, read: mean ± SEM of N independent experiments, each in duplicate or triplicate, read-out: pKi ± SEM Casp 3 (converted).

With `CC(=O)N1c2ccccc2C[C@H]1C(=O)N[C@@H](CCCC(=O)O)C(=O)N[C@H](C(=O)N1CCc2cc(C)ccc2[C@H]1C(=O)N[C@H](C=O)CC(=O)O)C(C)(C)C` [Compound 10, (S)-5-((S)-1-acetylindoline-2-carboxamido)-6-(((S)-1-((S)-1-(((S)-1-carboxy-3-oxopropan-2-yl)carbamoyl)-6-methyl-3,4-dihydroisoquinolin-2(1H)-yl)-3,3-dimethyl-1-oxobutan-2-yl)amino)-6-oxohexanoic acid], the Ki on human caspase-2 (setting [1]) is 2140 nM; on human caspase-3 (setting [2]), over 100000 nM. Further, the “Ki (Casp3) / Ki (Casp2)” value at human caspase-2 turned out to be 47.

`Cc1ccc2c(c1)CCN(C(=O)[C@@H](NC(=O)[C@H](CCCC(=O)O)NC(=O)[C@@H]1Cc3ccccc3N1)C(C)OCc1ccccc1)C2C(=O)N[C@H](C=O)CC(=O)O` (stereo partly drawn) [Compound 6, (S)-6-(((2S,3S)-3-(benzyloxy)-1-((S)-1-(((S)-1-carboxy-3-oxopropan-2-yl)carbamoyl)-6-methyl-3,4-dihydroisoquinolin-2(1H)-yl)-1-oxobutan-2-yl)amino)-5-((S)-indoline-2-carboxamido)-6-oxohexanoic acid hydrotrifluoroacetate] (H-[X3][Aad][Thr(3ξ)](Bn)[ξTHIQ1CO(6-Me)]D-aldehyde): on human caspase-2, the Ki is 2290 nM and the “Ki (Casp3) / Ki (Casp2)” value was 14. Also, on human caspase-3, the Ki is 33100 nM.

Turning to `Cc1ccc2c(c1F)CCN(C(=O)[C@@H](NC(=O)[C@H](CCCC(=O)O)NC(=O)[C@@H]1Cc3ccccc3N1)C(C)C)C2C(=O)N[C@H](C=O)CC(=O)O` (stereo partly drawn) [Compound 14, (S)-6-(((S)-1-((S)-1-(((S)-1-carboxy-3-oxopropan-2-yl)carbamoyl)-5-fluoro-6-methyl-3,4-dihydroisoquinolin-2(1H)-yl)-3-methyl-1-oxobutan-2-yl)amino)-5-((S)-indoline-2-carboxamido)-6-oxohexanoic acid hydrotrifluoroacetate], at human caspase-2, the Ki was 191 nM and the “Ki (Casp3) / Ki (Casp2)” value is 525. The Ki on human caspase-3 was over 100000 nM.

As for `CC(=O)N1c2ccccc2C[C@H]1C(=O)N[C@@H](CCCC(=O)O)C(=O)N[C@H](C(=O)N1CCc2cc(C)ccc2[C@H]1C(=O)N[C@H](C=O)CC(=O)O)C(C)C` [Compound 9, (S)-5-((S)-1-acetylindoline-2-carboxamido)-6-(((S)-1-((S)-1-(((S)-1-carboxy-3-oxopropan-2-yl)carbamoyl)-6-methyl-3,4-dihydroisoquinolin-2(1H)-yl)-3-methyl-1-oxobutan-2-yl)amino)-6-oxohexanoic acid], the Ki on human caspase-2 (setting [1]) is 380 nM; at human caspase-3 (setting [2]), over 100000 nM. In addition, the “Ki (Casp3) / Ki (Casp2)” value on human caspase-2 is given as 263.
